Results: PMC7229161 (Scientific Reports, 2020)
Entries after “also recorded” stand apart in the source; their conditions may differ.

Experiments:
[1] = test system: Ch6 rat-chicken TRPV1 chimera (rat N-terminus, M1-R428); assay type: cell-based
cTRPV1 = cTRPV1 (Gallus gallus, UniProt Q8QFN9); assay: cell-based; assay type: cell-based, chicken (Gallus gallus)
rTRPV1 = rTRPV1 (Rattus norvegicus, UniProt O35433); assay type: cell-based
rTRPV1-E570A = biological target: T1, rTRPV1-E570A (Rattus norvegicus, UniProt O35433, E570A); assay type: cell-based
T1 construct: expressed in transfected cells; host or cells: HEK293T

3XHA-cTRPV1-A578Q = assay type: cell-based, chicken (Gallus gallus)
rTRPV1-E570K = biological target: T2, rTRPV1-E570K (Rattus norvegicus, UniProt O35433, E570K); assay type: cell-based
T2 construct: expressed in transfected cells; host or cells: HEK293T

rTRPV1-E570Q = biological target: T3, rTRPV1-E570Q (Rattus norvegicus, UniProt O35433, E570Q); assay type: cell-based
T3 construct: expressed in transfected cells; host or cells: HEK293T

3XHA-cTRPV1-A578P = assay type: cell-based, chicken (Gallus gallus)
[2] = test system: Ch15 rat-chicken TRPV1 chimera (rat C-terminus, N687-K838); assay type: cell-based
3XHA-cTRPV1-A578K = assay type: cell-based, chicken (Gallus gallus)
cTRPV1-A578E = cTRPV1-A578E (Gallus gallus, UniProt Q8QFN9, A578E); assay: cell-based; design: species or system chicken (Gallus gallus)
rTRPV1-E570P = biological target: T4, rTRPV1-E570P (Rattus norvegicus, UniProt O35433, E570P); assay type: cell-based
T4 construct: expressed in transfected cells; host or cells: HEK293T
T4 sequence (O35433 whole entry E570P): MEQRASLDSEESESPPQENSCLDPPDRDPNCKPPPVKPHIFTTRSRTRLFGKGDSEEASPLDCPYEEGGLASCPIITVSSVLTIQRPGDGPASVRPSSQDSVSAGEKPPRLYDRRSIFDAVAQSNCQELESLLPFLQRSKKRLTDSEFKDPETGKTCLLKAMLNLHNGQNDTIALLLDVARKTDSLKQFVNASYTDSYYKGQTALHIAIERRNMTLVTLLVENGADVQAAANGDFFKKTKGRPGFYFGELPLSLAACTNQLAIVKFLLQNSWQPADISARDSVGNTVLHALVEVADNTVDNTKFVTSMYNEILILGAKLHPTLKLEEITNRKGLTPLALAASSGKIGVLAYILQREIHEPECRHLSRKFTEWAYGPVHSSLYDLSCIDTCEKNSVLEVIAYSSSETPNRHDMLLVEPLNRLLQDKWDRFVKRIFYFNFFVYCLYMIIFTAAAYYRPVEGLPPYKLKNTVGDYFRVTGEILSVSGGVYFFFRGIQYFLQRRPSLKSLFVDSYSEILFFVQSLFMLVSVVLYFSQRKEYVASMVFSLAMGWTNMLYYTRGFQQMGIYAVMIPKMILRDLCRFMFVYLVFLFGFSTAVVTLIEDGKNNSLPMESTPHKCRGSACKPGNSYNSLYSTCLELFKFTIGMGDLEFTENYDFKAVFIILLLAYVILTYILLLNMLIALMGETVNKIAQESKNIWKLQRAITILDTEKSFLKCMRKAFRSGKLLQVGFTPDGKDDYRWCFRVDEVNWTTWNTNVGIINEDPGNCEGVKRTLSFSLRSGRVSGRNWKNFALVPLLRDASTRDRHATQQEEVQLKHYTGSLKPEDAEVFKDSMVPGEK

Sequence of cTRPV1-A578E (Q8QFN9 1-843 A578E): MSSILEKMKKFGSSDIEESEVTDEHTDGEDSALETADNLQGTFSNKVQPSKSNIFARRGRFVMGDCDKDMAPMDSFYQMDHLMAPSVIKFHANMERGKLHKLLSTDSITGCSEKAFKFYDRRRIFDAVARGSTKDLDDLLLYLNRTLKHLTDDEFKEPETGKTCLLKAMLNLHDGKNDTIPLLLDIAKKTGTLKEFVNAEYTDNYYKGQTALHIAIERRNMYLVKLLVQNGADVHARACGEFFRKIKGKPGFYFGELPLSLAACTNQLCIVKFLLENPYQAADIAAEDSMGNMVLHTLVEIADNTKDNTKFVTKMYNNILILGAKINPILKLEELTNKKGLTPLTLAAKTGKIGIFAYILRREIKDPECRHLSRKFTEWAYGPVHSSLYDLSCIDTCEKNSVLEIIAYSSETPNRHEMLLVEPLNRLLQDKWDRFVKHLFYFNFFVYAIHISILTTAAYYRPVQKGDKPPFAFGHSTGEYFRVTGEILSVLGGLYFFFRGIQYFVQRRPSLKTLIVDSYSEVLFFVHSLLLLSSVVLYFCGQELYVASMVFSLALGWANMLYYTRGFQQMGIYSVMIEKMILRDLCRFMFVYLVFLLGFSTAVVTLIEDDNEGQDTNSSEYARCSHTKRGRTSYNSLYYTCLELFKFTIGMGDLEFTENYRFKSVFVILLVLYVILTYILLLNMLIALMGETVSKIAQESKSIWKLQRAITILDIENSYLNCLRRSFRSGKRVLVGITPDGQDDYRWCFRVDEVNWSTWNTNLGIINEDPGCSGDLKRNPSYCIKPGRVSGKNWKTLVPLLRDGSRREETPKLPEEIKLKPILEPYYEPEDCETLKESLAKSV
Sequence of cTRPV1 (Q8QFN9 1-843): as the sequence (Q8QFN9 1-843 A578E) above, with E578A counted along it
Sequence of rTRPV1 (O35433 whole entry): as the sequence (O35433 whole entry E570P) above, with P570E counted along it
T1 sequence (O35433 whole entry E570A): as the sequence (O35433 whole entry E570P) above, with P570A counted along it
T3 sequence (O35433 whole entry E570Q): as the sequence (O35433 whole entry E570P) above, with P570Q counted along it
T2 sequence (O35433 whole entry E570K): as the sequence (O35433 whole entry E570P) above, with P570K counted along it

With `COc1cc(CNC(=O)CCCC/C=C/C(C)C)ccc1O` [capsaicin] the “capsaicin sensitivity of chimera vs cTRPV1” value [1] was “limited improvement in capsaicin sensitivity”, the EC50 (cTRPV1) was over 30 µM and the “channel activation (Ca2+ signal)” value (cTRPV1) was “the response was relatively weak for cTRPV1; also recorded: limited response”. The “channel activation (Ca2+ signal)” value (rTRPV1) was “activated rTRPV1”, the “capsaicin-induced responses vs wildtype rTRPV1” value (rTRPV1-E570A) was “drastically decreased” and the “vanilloid responsiveness (30 μM capsaicin-induced activation normalized to cocktail-induced maximum channel opening)” value (3XHA-cTRPV1-A578Q) was “greatest capsaicin sensitivity”. For the same compound, the “responsiveness to 300 nM capsaicin normalized to protein expression level” value (rTRPV1-E570K) was “exhibited responsiveness to 300 nM capsaicin, albeit much weaker than wildtype”, the “responsiveness to 300 nM capsaicin normalized to protein expression level” value (rTRPV1-E570Q) was “exhibited responsiveness to 300 nM capsaicin, albeit much weaker than wildtype” and the “vanilloid responsiveness (30 μM capsaicin-induced activation normalized to cocktail-induced maximum channel opening)” value (3XHA-cTRPV1-A578P) was “greatest capsaicin sensitivity”. For the same compound, the “capsaicin sensitivity of chimera” value [2] was “no capsaicin sensitivity”, the “vanilloid responsiveness (30 μM capsaicin-induced activation normalized to cocktail-induced maximum channel opening)” value (3XHA-cTRPV1-A578K) was “greatest capsaicin sensitivity” and the EC50 (cTRPV1-A578E) was 7.2 ± 9.4 µM. For the same compound, the “increase of response to 100 μM capsaicin, A578E mutant vs wildtype cTRPV1” value (cTRPV1-A578E) was 5 fold, the “vanilloid responsiveness (30 μM capsaicin-induced activation normalized to cocktail-induced maximum channel opening)” value (cTRPV1-A578E) was “greatest capsaicin sensitivity” and the “responsiveness to 300 nM capsaicin normalized to protein expression level” value (rTRPV1-E570P) was “reduced capsaicin sensitivity”.
For `COc1cc(CCC(C)=O)ccc1O` [zingerone], the “Zingerone-induced activity relative to capsaicin” value (rTRPV1) was 35.9 ± 5.0%, the zingerone-induced activation (rTRPV1) was “activated rTRPV1” and the zingerone-induced activation (3XHA-cTRPV1-A578Q) was “did not activate”. For the same compound, the zingerone-induced activation (3XHA-cTRPV1-A578P) was “did not activate”, the zingerone-induced activation (3XHA-cTRPV1-A578K) was “did not activate” and the zingerone-induced activation (cTRPV1-A578E) was “did not activate”.
ruthenium red was tested, and the “block of cocktail-elicited ion flow” value (cTRPV1) was “sufficient to block most ions” and the “block of cocktail-elicited extracellular Ca2+ entry” value (rTRPV1) was “could be blocked”.
For `CNCCOc1ccc(CNC(=O)CCCC/C=C/C(C)C)cc1OC` [Cap-EMA, O-(N-methylaminoethyl) capsaicin], the capsaicin analog-induced activation (rTRPV1) was “strong response” and the capsaicin analog-induced activation (3XHA-cTRPV1-A578K) was “slightly activated”.
In the case of `COc1cc(CNC(=O)CCCC/C=C/C(C)C)ccc1OCCN` [Cap-EA, O-aminoethyl capsaicin], the capsaicin analog-induced activation (rTRPV1) is reported as “strong response”, the capsaicin analog-induced activation (3XHA-cTRPV1-A578K) is reported as “partially activated” and the capsaicin analog-induced activation (cTRPV1-A578E) is reported as “successfully activated; also recorded: strongly activated”.
